Assay results taken from patent publication US6284787A, “Use of R-(+)-α-lipoic acid, R-(-)-dihydrolipoic acid and metabolites in the form of the free acid or as salts or esters or amides for the preparation of drugs for the treatment of diabetes mellitus as well as of its sequelae” (Asta Medica Aktiengesellschaft, priority 1993, dated 2001).

Legend:
alloxan-induced diabetes = details: animal model; cited from earlier work
rat diaphragms = details: in vitro, cited from earlier work
pyruvate dehydrogenase = biological target: T1, pyruvate dehydrogenase (Rattus norvegicus, UniProt P08461+P26284+P49432+Q6P6R2); assay: Pyruvate dehydrogenase activity after chronic administration in tissues of the spontaneously diabetic rat; format: in vivo; details: for Pyruvate dehydrogenase activity, trend: spontaneously diabetic rats, 50 mg/kg daily in tail vein, heart muscle, trend after two administrations
T1 construct: The tissue was homogenized; from tissue; host or cells: heart muscle of spontaneously diabetic BB rats
Description: After the manifestation of the diabetes, spontaneously diabetic rats (BB-Wol BB, of the Moellegard Company, Denmark, n=10/group) received 0.3 mL of neutral 0.12 M (corresponding to 50 mg/kg of body weight) R-(+)-α-lipoic acid or S-(-)-α-lipoic acid daily, administered in the vein of the tail. A control group received physiological salt solution. After 7 days, the animals were sacrificed. The pyruvate dehydrogenase activity was determined in the heart muscle. The tissue was homogenized.
Pyruvate+NAD^+ +CoA→Acetyl-CoA+CO2 +NADH+H^+
The extinction of the reduced coenzyme is measured at 339 nm in cuvettes with a Shimadzu UV 210 Detector at 37° C. The isolation of the enzyme complex (R. Koeplin, Ph.D. Thesis, University of Tuebingen, FRG, 1988, C. J. Stanley, R. N. Perham, Biochem. J. 191, 147-154, 1980) and the enzyme assay (O. H. Lowry et al. J. Biol. Chem. 256, 815-822, 1951) were carried out as described. The protein was measured by the method of Loary (N. Bashan et al., Am. J. Physiol. m262 (Cell Physiol. 31): C682-690, 1992).

L6 myotubes = assay: Glucose assimilation in muscle cells (3H-2-desoxyglucose uptake); format: cell-based; details: for effect on glucose assimilation together with insulin, in words: 2.5 mM with insulin 200 nM; for effect on glucose assimilation, in words: compared with other enantiomer or insulin (200 nM); for Glucose Assimilation R / Glucose Assimilation S: table 1; for Glucose Assimilation Insulin: insulin 200 nM
Description: The tissue muscle cells (L6 myotubes) were prepared in 24-bole plates and differentiated. After incubation with the test substances, an assay was carried out to determine hexose assimilation (^3 H-2-desoxyglucose, 10 μM, 10 minutes). […] After the cells were washed and then lysed with NaOH, the radioactivity absorbed was measured in a counter. Parallel experimental batches were carried out with cytochalasin-B, in order to determine the glucose transporter-dependent glucose translocations.
The results can be expressed as pmol/min×mg of protein.

[1] = system: GLUT1 Glucose Transporters; assay: Translocation of GLUT1 glucose transporters in L6 myotubes (Western blot of cell fractions); format: cell-based; details: for GLUT1 translocation, Light Microsomal Fraction / GLUT1 translocation, Plasma Membrane: one hour, control 1.00
Description: (§1) L6 myotubes in 15 cm dishes (n=4 to 5) were enlisted and incubated for one hour with 2.5 mM lipoate in MEM with 5 mM of glucose and 2% of fetal bovine serum. The cells were removed, homogenized and worked up in fractions (4° C.). The working up was carried out in an HEPES buffer with a defined addition of protease inhibitor. The cell fractions were obtained in 6 defined centrifuging steps. The fractions were added to a 10% polyacrylamide gel for a Western Blot analysis. The glucose transporters were determined with anti-GLUT1 and anti-GLUT4 antibodies using iodine-labeled protein A and autoradiographic detection.

GLUT 4 = assay: Translocation of GLUT4 glucose transporters in L6 myotubes; format: cell-based
Description: as §1

GLUT1 = assay: Cellular content of GLUT1 glucose transporters in L6 myotubes; format: cell-based; details: for Content of GLUT1: L6 myotubes, 2.5 mM, 4 hours of incubation, control 1.00; for cellular content of GLUT1, in words: after four hours of incubation
Description: (§2) L6 myotubes were incubated for 4 hours with 2.5 mM lipoic acid enantiomers in an MEM medium with 2% fetal bovine serum and 5 mM glucose. The glucose transporters were detected as described above. The membrane fraction is obtained after a single centrifugation at 210,000 g.

GLUT4 = assay: Cellular content of GLUT4 glucose transporters in L6 myotubes; format: cell-based; details: for Content of GLUT4: 2.5 mM, 4 hours of incubation, control 1.00; for cellular content of GLUT4, in words: after four hours of incubation
Description: as §2

[2] = system: streptozotocin-induced diabetes; assay: Diabetes induced tissue damage, streptozotocin-induced diabetes; format: in vivo, Wistar rats; details: for mortality in comparison to the control / pathologically changed parameter glycosilated hemoglobin, in words / pathologically changed parameter protein oxidation, in words: streptozotocin-induced diabetes; for % Glycosilated Hemoglobin: 1.65 g/kg of food for 14 weeks, streptozotocin diabetic rats, control 9.7 ± 1.5
Description: Thioct acid enantiomers were administered for 14 weeks by mouth, together with the food (1.65 g/kg of food), to female Wistar rats (n=3 to 6/group) in separate groups.
In the eighth week, streptozotocin diabetes was induced in the animals. Six weeks after the induction of the diabetes, the surviving animals were sacrificed. Tissue was taken and analyzed.

T1 sequence (P26284 30-390): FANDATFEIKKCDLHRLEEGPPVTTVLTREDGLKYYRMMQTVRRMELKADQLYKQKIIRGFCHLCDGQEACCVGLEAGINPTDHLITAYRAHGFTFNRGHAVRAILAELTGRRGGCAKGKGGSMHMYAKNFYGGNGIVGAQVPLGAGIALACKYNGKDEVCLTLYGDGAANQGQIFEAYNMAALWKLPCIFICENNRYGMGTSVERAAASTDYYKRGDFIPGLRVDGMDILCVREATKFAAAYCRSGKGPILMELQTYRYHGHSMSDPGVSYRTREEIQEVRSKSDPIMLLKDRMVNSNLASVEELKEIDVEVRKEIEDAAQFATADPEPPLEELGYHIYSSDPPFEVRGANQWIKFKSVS
T1 sequence (P49432 31-359): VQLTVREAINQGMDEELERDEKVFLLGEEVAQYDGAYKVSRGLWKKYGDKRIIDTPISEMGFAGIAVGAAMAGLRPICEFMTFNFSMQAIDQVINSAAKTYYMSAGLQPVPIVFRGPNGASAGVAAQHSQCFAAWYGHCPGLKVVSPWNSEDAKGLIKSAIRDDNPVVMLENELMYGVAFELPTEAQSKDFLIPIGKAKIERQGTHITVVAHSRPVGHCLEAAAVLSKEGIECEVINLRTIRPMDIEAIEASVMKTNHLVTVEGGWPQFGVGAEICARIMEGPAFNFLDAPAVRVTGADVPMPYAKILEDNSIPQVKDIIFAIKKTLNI
T1 sequence (P08461 86-632 limits assumed): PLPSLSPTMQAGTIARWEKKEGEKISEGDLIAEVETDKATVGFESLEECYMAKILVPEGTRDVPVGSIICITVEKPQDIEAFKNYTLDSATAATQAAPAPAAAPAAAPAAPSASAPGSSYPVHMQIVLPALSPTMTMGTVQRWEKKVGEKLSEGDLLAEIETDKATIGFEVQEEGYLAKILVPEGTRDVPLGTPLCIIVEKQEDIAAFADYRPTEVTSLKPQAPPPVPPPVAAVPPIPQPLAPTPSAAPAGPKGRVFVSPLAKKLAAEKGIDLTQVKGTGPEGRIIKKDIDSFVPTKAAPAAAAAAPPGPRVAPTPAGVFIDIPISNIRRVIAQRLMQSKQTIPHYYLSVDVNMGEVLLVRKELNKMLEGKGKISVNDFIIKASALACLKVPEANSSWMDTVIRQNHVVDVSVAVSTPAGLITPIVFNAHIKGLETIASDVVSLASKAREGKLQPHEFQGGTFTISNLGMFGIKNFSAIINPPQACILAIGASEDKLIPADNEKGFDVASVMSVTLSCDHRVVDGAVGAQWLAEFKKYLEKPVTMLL
T1 sequence (Q6P6R2 36-509): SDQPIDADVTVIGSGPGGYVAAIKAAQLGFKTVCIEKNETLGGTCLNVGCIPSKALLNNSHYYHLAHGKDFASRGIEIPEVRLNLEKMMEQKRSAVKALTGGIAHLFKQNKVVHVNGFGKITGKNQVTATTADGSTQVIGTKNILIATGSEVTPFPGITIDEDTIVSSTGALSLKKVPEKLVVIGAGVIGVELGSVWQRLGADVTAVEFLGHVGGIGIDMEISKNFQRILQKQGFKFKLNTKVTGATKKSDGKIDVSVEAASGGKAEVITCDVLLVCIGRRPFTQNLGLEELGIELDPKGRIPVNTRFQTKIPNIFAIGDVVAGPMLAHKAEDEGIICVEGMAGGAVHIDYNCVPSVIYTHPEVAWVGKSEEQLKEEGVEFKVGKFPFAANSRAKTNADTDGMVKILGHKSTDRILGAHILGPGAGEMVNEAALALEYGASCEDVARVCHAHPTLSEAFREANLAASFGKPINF

## O=C(O)CCCCC1CCSS1 (racemic) [R,S-(+,-)-α-lipoic acid]
alloxan-induced diabetes
  effect on blood sugar: blood sugar-lowering effect
Rat diaphragms; Haugaard
  effect relative to that of insulin: additive
Rat diaphragms; racemate from Calbiochem
  glucose assimilation by muscles: increases

## O=C(O)CCCC[C@@H]1CCSS1 [R-(+)-α-lipoic acid]
Pyruvate dehydrogenase
  Pyruvate dehydrogenase activity, trend: increased
L6 myotubes; 2.5 mM
  stimulation of glucose assimilation compared to the S enantiomer, factor: greater than 2
  effect on glucose assimilation, in words: comparable to that of insulin
L6 myotubes
  effect on glucose assimilation together with insulin, in words: not additive
L6 myotubes; 2.5 mM, incubation time 15
  Glucose Assimilation R: 16.7 ± 0.6 pmol/mg/min
L6 myotubes; 2.5 mM, incubation time 30
  Glucose Assimilation R: 15.9 ± 0.9 pmol/mg/min
L6 myotubes; 2.5 mM, incubation time 60
  Glucose Assimilation R: 26.1 ± 0.9 pmol/mg/min
L6 myotubes; 2.5 mM, incubation time 120
  Glucose Assimilation R: 27.0 ± 0.4 pmol/mg/min
L6 myotubes; table 2, 2.5 mM, incubation 15 min
  Glucose Assimilation R-(+)-α-Liponic Acid: 23.2 ± 0.5 pmol/mg/min
L6 myotubes; table 2, 2.5 mM, incubation 30 min
  Glucose Assimilation R-(+)-α-Liponic Acid: 21.1 ± 0.4 pmol/mg/min
L6 myotubes; table 2, 2.5 mM, incubation 60 min
  Glucose Assimilation R-(+)-α-Liponic Acid: 25.7 ± 0.5 pmol/mg/min
[1]
  translocation of glucose transporters Glut 1 from the cytosol to the plasma membrane, in words: stimulates
[1]; table 4, enantiomers 2.5 mM
  GLUT1 translocation, Light Microsomal Fraction: 0.46 ± 0.06 relative units
  GLUT1 translocation, Plasma Membrane: 1.56 ± 0.25 relative units
[1]; table 5, enantiomers 2.5 mM
  GLUT1 translocation, Light Microsomal Fraction: 0.46 ± 0.06 relative units
GLUT 4
  translocation of glucose transporters GLUT 4 from the cytosol to the plasma membrane, in words: stimulates
GLUT1
  Content of GLUT1: 1.81 ± 0.01 arbitrary units
  cellular content of GLUT1, in words: increases
GLUT4; L6 myotubes
  Content of GLUT4: 1.55 ± 0.24 arbitrary units
GLUT4
  cellular content of GLUT4, in words: increases
[2]
  mortality in comparison to the control: reduced
  pathologically changed parameter glycosilated hemoglobin, in words: corrects
  pathologically changed parameter protein oxidation, in words: corrects
[2]; table 7
  % Glycosilated Hemoglobin: 8.4 ± 1.3%
[2]; table 8
  % Glycosilated Hemoglobin: 8.4 ± 1.3%
[2]; table 9
  % Glycosilated Hemoglobin: 8.4 ± 1.3%

## O=C(O)CCCC[C@H]1CCSS1 [S-(-)-α-lipoic acid, reference compound]
Pyruvate dehydrogenase; animal experiments
  pyruvate dehydrogenase, effect in animal experiments: inhibited
Pyruvate dehydrogenase
  Pyruvate dehydrogenase activity, trend: Lowered
L6 myotubes
  effect on glucose assimilation together with insulin, in words: decreases the effect of insulin
L6 myotubes; 2.5 mM
  effect on glucose assimilation, in words: less effective
L6 myotubes; 2.5 mM, incubation time 15
  Glucose Assimilation S: 16.3 ± 0.3 pmol/mg/min
L6 myotubes; 2.5 mM, incubation time 30
  Glucose Assimilation S: 14.8 ± 0.7 pmol/mg/min
L6 myotubes; 2.5 mM, incubation time 60
  Glucose Assimilation S: 21.6 ± 0.4 pmol/mg/min
L6 myotubes; 2.5 mM, incubation time 120
  Glucose Assimilation S: 20.5 ± 0.8 pmol/mg/min
L6 myotubes; table 3, 2.5 mM, incubation 15 min
  Glucose Assimilation S-(-)α-Liponic Acid: 14.8 ± 0.4 pmol/mg/min
L6 myotubes; table 3, 2.5 mM, incubation 30 min
  Glucose Assimilation S-(-)α-Liponic Acid: 13.3 ± 0.4 pmol/mg/min
L6 myotubes; table 3, 2.5 mM, incubation 60 min
  Glucose Assimilation S-(-)α-Liponic Acid: 16.0 ± 0.2 pmol/mg/min
[1]
  translocation of glucose transporters Glut 1 from the cytosol to the plasma membrane, in words: has no effect or has an inhibiting effect
[1]; table 4, enantiomers 2.5 mM
  GLUT1 translocation, Light Microsomal Fraction: 0.38 ± 0.09 relative units
  GLUT1 translocation, Plasma Membrane: 0.93 ± 0.37 relative units
[1]; table 5, enantiomers 2.5 mM
  GLUT1 translocation, Light Microsomal Fraction: 0.38 ± 0.09 relative units
GLUT 4
  translocation of glucose transporters GLUT 4 from the cytosol to the plasma membrane, in words: has no effect or has an inhibiting effect
GLUT1
  Content of GLUT1: 1.08 ± 0.01 arbitrary units
  cellular content of GLUT1, in words: has no effect or lowers the cellular content
GLUT4; L6 myotubes
  Content of GLUT4: 0.79 ± 0.47 arbitrary units
GLUT4
  cellular content of GLUT4, in words: has no effect or lowers the cellular content
GLUT4; translocation experiment, L6 myotubes
  total content of glucose transporters in the cell (GLUT4), in words: appears to lower
[2]
  mortality in comparison to the control: increased
  pathologically changed parameter glycosilated hemoglobin, in words: lesser effect to no effect
  pathologically changed parameter protein oxidation, in words: lesser effect to no effect
[2]; table 7
  % Glycosilated Hemoglobin: 10.7 ± 2.1%
[2]; table 8
  % Glycosilated Hemoglobin: 10.7 ± 2.1%
[2]; table 9
  % Glycosilated Hemoglobin: 10.7 ± 2.1%

## Insulin: Insulin, added at a concentration of 200 nM
L6 myotubes; table 2, incubation 15 min
  Glucose Assimilation Insulin: 24.7 ± 0.9 pmol/mg/min
L6 myotubes; table 2, incubation 30 min
  Glucose Assimilation Insulin: 21.6 ± 0.4 pmol/mg/min
L6 myotubes; table 2, incubation 60 min
  Glucose Assimilation Insulin: 23.7 ± 0.5 pmol/mg/min
L6 myotubes; table 3, incubation 15 min
  Glucose Assimilation Insulin: 17.7 ± 0.3 pmol/mg/min
L6 myotubes; table 3, incubation 30 min
  Glucose Assimilation Insulin: 16.3 ± 0.5 pmol/mg/min
L6 myotubes; table 3, incubation 60 min
  Glucose Assimilation Insulin: 22.3 ± 0.5 pmol/mg/min
[1]
  translocation of glucose transporters Glut 1 from the cytosol to the plasma membrane, in words: stimulates
[1]; table 4, enantiomers 2.5 mM
  GLUT1 translocation, Plasma Membrane: 1.07 ± 0.14 relative units
[1]; table 5, enantiomers 2.5 mM
  GLUT1 translocation, Plasma Membrane: 1.07 ± 0.14 relative units
GLUT 4
  translocation of glucose transporters GLUT 4 from the cytosol to the plasma membrane, in words: stimulates
